Experimental data published in patent publication US9776987B2, “Amide derivatives for GPR119 agonist” (CHONG KUN DANG PHARMACEUTICAL CORP., priority 2013, dated 2017).

Biological target: T1, human GPR119 receptor (Homo sapiens, UniProt Q8TDV5)
T1 construct: host or cells: GeneBLAzer T-Rex GPR 119 CHO-K1 DA cells (CHO-K1)
T1 sequence (Q8TDV5 1-335): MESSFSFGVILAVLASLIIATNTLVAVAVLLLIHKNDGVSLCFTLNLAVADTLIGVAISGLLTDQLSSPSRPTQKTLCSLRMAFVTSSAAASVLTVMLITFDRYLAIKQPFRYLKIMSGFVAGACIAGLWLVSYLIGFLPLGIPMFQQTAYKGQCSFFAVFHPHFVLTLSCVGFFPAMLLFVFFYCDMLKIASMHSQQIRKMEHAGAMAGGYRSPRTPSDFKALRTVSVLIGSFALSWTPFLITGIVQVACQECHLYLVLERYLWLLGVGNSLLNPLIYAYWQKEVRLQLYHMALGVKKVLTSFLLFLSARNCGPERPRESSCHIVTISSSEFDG
Test: Activity test for human GPR119 receptor (GeneBLAzer T-Rex GPR 119 CHO-K1 DA cells)
Type: cell-based
Details: for EC50: human GPR119 receptor expressing CHO-K1 cells, 5 hours treatment, read-out: hGPR119 EC50; for activity for human GPR119 receptor (in words): judgement on the EC50 values of Table 11
Method: 1. Human GPR119 Receptor Cell
As a human GPR119 receptor expression cell for this test, the cell line “GeneBLAzer™ T-Rex GPR 119 CHO-K1 DA cells” that is commercially available from Invitrogen, was used. The cell was incubated in the DMEM media containing 1% dialyzed fetal bovine serum etc. The cell incubator was kept at constant temperature and constant humidity of 37° C., 5% CO2.
2. Activity Test for Human GPR119 Receptor
The human GPR119 receptor expressing cell was used to this test. Each of test compounds was added to be final concentrations of 0.1, 1, 10 μM in 96 well and tested in duplicate. A fixed amount of cell was added to each well of 96 well separately, and then treated with the test compound for 5 hours. After treatment of color development agent for 2 hours, the fluorescence value was determined with plate reader. To the luminous wavelength of control well, which was not treated with the sample, but in which only a vehicle […] was contained, the ratio of the luminous wavelength of test well, which was treated with the sample, was calculated, and then converted to obtain EC50 value.
3. Statistical Processing
All the results were expressed as mean±SD, and each test groups and the control group were compared using student's t-test to adjudge the effects of each test groups.

SMILES	EC50 [nM]	activity for human GPR119 receptor (in words)
CC(C)(F)CN1CCC(COc2cnc(-c3ccc(C(=O)N4CCC[C@@]4(C)C(N)=O)c(F)c3)nc2)CC1 [Compound 1206, (S)-1-(2-fluoro-4-(5-((1-(2-fluoro-2-methylpropyl)piperidin-4-yl)methoxy)pyrimidin-2-yl)benzoyl)-2-methylpyrrolidin-2-carboxamide]	9	–
C[C@@]1(C(N)=O)C[C@@H](O)CN1C(=O)c1ccc(-c2ccc(OCC3CCN(CC4(C(F)(F)F)CCC4)CC3)nc2)cc1F [Compound 1326, (2S,4R)-1-(2-fluoro-4-(6-((1-((1-(trifluoromethyl)cyclobutyl)methyl)piperidin-4-yl)methoxy)pyridin-3-yl)benzoyl)-4-hydroxy-2-methylpyrrolidin-2-carboxamide]	50	–
C[C@@]1(C(N)=O)C[C@@H](O)CN1C(=O)c1ccc(-c2ccc(OCC3CCN(CC4(C(F)(F)F)CCC4)CC3)cc2)c(F)c1 [Compound 1258, (2S,4R)-1-(2-fluoro-4′-((1-((1-(trifluoromethyl)cyclobutyl)methyl)piperidin-4-yl)methoxy)biphenylcarbonyl)-4-hydroxy-2-methylpyrrolidin-2-carboxamide]	1	–
CCC(F)(F)CN1CCC(COc2ccc(-c3ccc(C(=O)N4CCC[C@H]4C(N)=O)c(F)c3)cn2)CC1 [Compound 1238, (S)-1-(4-(6-((1-(2,2-difluorobutyl)piperidin-4-yl)methoxy)pyridin-3-yl)-2-fluorobenzoyl)pyrrolidin-2-carboxamide]	0.9	–
CCC(F)(CC)CN1CCC(COc2ccc(-c3ccc(C(=O)N4CCC[C@@]4(C)C(N)=O)c(F)c3)nc2)CC1 [Compound 1299, (S)-1-(4-(5-((1-(2-ethyl-2-fluorobutyl)piperidin-4-yl)methoxy)pyridin-2-yl)-2-fluorobenzoyl)-2-methylpyrrolidin-2-carboxamide]	9	excellent activity
CCC(F)(CC)CN1CCC(COc2ccc(-c3ccc(C(=O)N4CC[C@H](O)[C@H]4C(N)=O)c(F)c3)cc2F)CC1 [Compound 1244, (2S,3S)-1-(4′-((1-(2-ethyl-2-fluorobutyl)piperidin-4-yl)methoxy)-3,3′-difluorobiphenylcarbonyl)-3-hydroxypyrrolidin-2-carboxamide]	0.3	–
NC(=O)[C@@H]1C[C@@H](O)CN1C(=O)c1ccc(-c2ccc(OCC3CCN(CC(F)(F)C(F)(F)F)CC3)cn2)cc1F [Compound 1265, (2S,4R)-1-(2-fluoro-4-(5-((1-(2,2,3,3,3-pentafluoropropyl)piperidin-4-yl)methoxy)pyridin-2-yl)benzoyl)-4-hydroxypyrrolidin-2-carboxamide]	0.05	excellent activity
NC(=O)[C@@H]1[C@@H](O)CCN1C(=O)c1ccc(-c2cnc(OCC3CCN(CC4(C(F)(F)F)CCC4)CC3)cn2)cc1F [Compound 1249, (2S,3S)-1-(2-fluoro-4-(5-((1-((1-(trifluoromethyl)cyclobutyl)methyl)piperidin-4-yl)methoxy)pyrazin-2-yl)benzoyl)-3-hydroxypyrrolidin-2-carboxamide]	0.1	excellent activity
CCC(F)(CC)CN1CCC(COc2ccc(-c3ccc(C(=O)N4C[C@@H](F)C[C@H]4C(N)=O)cc3F)cc2)CC1 [Compound 1210, (2S,4S)-1-(4′-((1-(2-ethyl-2-fluorobutyl)piperidin-4-yl)methoxy)-2-fluorobiphenylcarbonyl)-4-fluoropyrrolidin-2-carboxamide]	0.2	–
NC(=O)C1CC(O)CCN1C(=O)c1ccc(-c2cnc(OCC3CCN(CC4(C(F)(F)F)CCC4)CC3)cn2)cc1F (stereo not drawn) [Compound 1262, 1-(2-fluoro-4-(5-((1-((1-(trifluoromethyl)cyclobutyl)methyl)piperidin-4-yl)methoxy)pyrazin-2-yl)benzoyl)-4-hydroxypiperidin-2-carboxamide]	0.8	excellent activity
CC(C)(F)CN1CCC(COc2ccc(-c3ccc(C(=O)N4CCC[C@@]4(C)C(N)=O)c(F)c3)cc2C#N)CC1 [Compound 1259, (S)-1-(3′-cyano-3-fluoro-4′-((1-(2-fluoro-2-methylpropyl)piperidin-4-yl)methoxy)biphenylcarbonyl)-2-methylpyrrolidin-2-carboxamide]	5	–
CCC(F)(CC)CN1CCC(COc2ccc(-c3ccc(C(=O)N4C[C@H](O)C[C@H]4C(N)=O)cc3F)nc2)CC1 [Compound 1287, (2S,4R)-1-(4-(5-((1-(2-ethyl-2-fluorobutyl)piperidin-4-yl)methoxy)pyridin-2-yl)-3-fluorobenzoyl)-4-hydroxypyrrolidin-2-carboxamide]	20	–
NC(=O)[C@@H]1C[C@@H](O)CN1C(=O)c1ccc(-c2ccc(OCC3CCN(CC4(C(F)(F)F)CCC4)CC3)cn2)cc1F [Compound 1280, (2S,4R)-1-(2-fluoro-4-(5-((1-((1-(trifluoromethyl)cyclobutyl)methyl)piperidin-4-yl)methoxy)pyridin-2-yl)benzoyl)-4-hydroxypyrrolidin-2-carboxamide]	38	excellent activity
CCC(F)(CC)CN1CCC(COc2cnc(-c3ccc(C(=O)N4C[C@H](O)C[C@H]4C(N)=O)c(F)c3)nc2)CC1 [Compound 1257, (2S,4R)-1-(4-(5-((1-(2-ethyl-2-fluorobutyl)piperidin-4-yl)methoxy)pyrimidin-2-yl)-2-fluorobenzoyl)-4-hydroxypyrrolidin-2-carboxamide]	10	–
NC(=O)[C@@H]1C[C@@H](O)CN1C(=O)c1ccc(-c2ccc(OCC3CCN(CC4(C(F)(F)F)CCC4)CC3)nc2)cc1F [Compound 1317, (2S,4R)-1-(2-fluoro-4-(6-((1-((1-(trifluoromethyl)cyclobutyl)methyl)piperidin-4-yl)methoxy)pyridin-3-yl)benzoyl)-4-hydroxypyrrolidin-2-carboxamide]	60	–
CC(C)(CN1CCC(COc2ccc(-c3ccc(C(=O)N4CCC[C@@]4(C)C(N)=O)c(F)c3)nc2)CC1)C(F)(F)F [Compound 1269, (S)-1-(2-fluoro-4-(5-((1-(3,3,3-trifluoro-2,2-dimethylpropyl)piperidin-4-yl)methoxy)pyridin-2-yl)benzoyl)-2-methylpyrrolidin-2-carboxamide]	0.09	excellent activity
C[C@@]1(C(N)=O)CCCN1C(=O)c1ccc(-c2ccc(OCC3CCN(CC4(C(F)(F)F)CCC4)CC3)cn2)cc1F [Compound 1297, (S)-1-(2-fluoro-4-(5-((1-((1-(trifluoromethyl)cyclobutyl)methyl)piperidin-4-yl)methoxy)pyridin-2-yl)benzoyl)-2-methylpyrrolidin-2-carboxamide]	4	excellent activity
CCC(F)(CC)CN1CCC(COc2ccc(-c3ccc(C(=O)N4C[C@H](O)C[C@@]4(C)C(N)=O)cc3)nc2)CC1 [Compound 1309, (2S,4R)-1-(4-(5-((1-(2-ethyl-2-fluorobutyl)piperidin-4-yl)methoxy)pyridin-2-yl)benzoyl)-4-hydroxy-2-methylpyrrolidin-2-carboxamide]	47	–
NC(=O)[C@@H]1CCCN1C(=O)c1ccc(-c2ccc(OCC3CCN(CC(F)(F)C(F)(F)F)CC3)cc2)cc1F [Compound 1239, (S)-1-(3-fluoro-4′-((1-(2,2,3,3,3-pentafluoropropyl)piperidin-4-yl)methoxy)biphenylcarbonyl)pyrrolidin-2-carboxamide]	0.1	–
NC(=O)[C@@H]1C[C@@H](O)CN1C(=O)c1ccc(-c2ccc(OCC3CCN(CC(F)(F)C(F)(F)F)CC3)cc2)cc1F [Compound 1256, (2S,4R)-1-(3-fluoro-4′-((1-(2,2,3,3,3-pentafluoropropyl)piperidin-4-yl)methoxy)biphenylcarbonyl)-4-hydroxypyrrolidin-2-carboxamide]	0.4	–
NC(=O)[C@@H]1[C@@H](O)CCN1C(=O)c1ccc(-c2cnc(OCC3CCN(CC4(C(F)(F)F)CCC4)CC3)cn2)c(F)c1 [Compound 1253, (2S,3S)-1-(3-fluoro-4-(5-((1-((1-(trifluoromethyl)cyclobutyl)methyl)piperidin-4-yl)methoxy)pyrazin-2-yl)benzoyl)-3-hydroxypyrrolidin-2-carboxamide]	0.2	excellent activity
CC(C)(F)CN1CCC(COc2ccc(-c3ccc(C(=O)N4C[C@H](O)C[C@@]4(C)C(N)=O)c(F)c3)cc2C#N)CC1 [Compound 1276, (2S,4R)-1-(3′-cyano-3-fluoro-4′-((1-(2-fluoro-2-methylpropyl)piperidin-4-yl)methoxy)biphenylcarbonyl)-4-hydroxy-2-methylpyrrolidin-2-carboxamide]	24	–
